Measurements from the NIST ThermoML archive (doi:10.1021/je3005408).
Numbers after ± are expanded uncertainties.

Details: Liquid, Ebulliometric method (Recirculating still)

SMILES | vapor or sublimation pressure (361.65 K) [kPa] | vapor or sublimation pressure (381.35 K) [kPa] | vapor or sublimation pressure (394.25 K) [kPa] | vapor or sublimation pressure (317.95 K) [kPa] | vapor or sublimation pressure (336.85 K) [kPa] | vapor or sublimation pressure (349.15 K) [kPa]
CCCCOC(C)=O [butyl ethanoate] | 29.77 ± 0.34 | 58.85 ± 0.79 | 87.65 ± 1.3 |  |  | 
C1CCCCC1 [cyclohexane] |  |  |  | 29.77 ± 0.34 | 58.85 ± 0.77 | 87.65 ± 1.2
